Data taken from a melting point compilation (Tetko et al.; mined from patent text by program, amines drawn as free bases though some values may be those of a salt).

SMILES | melting point [°C]
CC1(C)Oc2ccc(C#N)cc2C(n2ccccc2=O)C1O (configuration not stated) | 243
COc1ccc(C(=O)c2cnn(C)c2O)c(Cl)c1N=C1CCCCS1=O (configuration not stated) | 89 to 91
COc1ccc(-c2ccc(C(C)=O)cc2[N+](=O)[O-])c(OC)c1 | 129 to 131
CC(C)(C)c1ccc(C(=O)Nc2cn3cc(-n4cncn4)ccc3n2)cc1 | 274 to 276
Cc1c(F)cccc1C(=O)Nc1ccc(C(=O)N2Cc3ccnn3Cc3ccccc32)cc1 | 245 to 250
CC(=O)c1ccc(OC(C)(C)C(=O)O)c(Cl)c1 | 123 to 125
CC(=O)NC1CCS(=O)(=O)c2sc(S(N)(=O)=O)cc21 (configuration not stated) | 263 to 265
C#CC(C)OC(=O)c1cccc2ccccc12 (configuration not stated) | 66 to 68
Nc1cc(O)ccc1/C=C/c1ccc(O)cc1 | 229 to 232
O=C(O)c1ccc2c(c1)OC(c1cccc(Cl)c1)(c1cccc(Cl)c1)O2 | 166
COc1ccc2[nH]c3cc(-c4cc([N+](=O)[O-])ccc4OC)c4c(c3c2c1)C(=O)NC4=O | 302 to 304
CCOc1nc(C2CC2)nc(OC)c1C=O | 93 to 94
COc1c([N+](=O)[O-])cc(C=O)c(Cl)c1OC(C)=O | 84 to 85
COc1ccc(S(=O)(=O)NC(C)c2ccccc2-c2cc(F)ccc2F)cc1 (configuration not stated) | 143 to 144
O=C(c1ccc(Cl)cc1)C1CCN(S(=O)(=O)N2CCCC[C@@H]2C(=O)NO)CC1 | 84.4 to 86.4
COc1ccc(C=C2C=CC(=O)O2)cc1 | 118 to 120
CCCn1c(OCC2CC2(Cl)Cl)nc2sc(Cl)cc2c1=O (configuration not stated) | 94 to 96
O=C(C1COc2ccc([N+](=O)[O-])cc21)N1CCCCC1 (configuration not stated) | 108 to 114
CCOC(=O)CNC(=O)C1=C(C(=O)Nc2ccc(Cl)cc2F)CCCC1 | 170
Cc1c(SCCCCSCCn2c([N+](=O)[O-])cnc2C)ccnc1CO | 86 to 87
CCCCCCCCCOC(=O)Oc1ccc(C(=O)O)cc1 | 118 to 120
Cn1ccnc1Sc1ccc(Nc2c(C#N)cnc3cc(/C=C/CCN4CCOCC4)ccc23)cc1Cl | 232 to 238
O=c1nc(C2CCCCC2)c2cc(Cl)ccc2[nH]1 | 270
CC(=O)SCC(=O)Nc1ccc(C(=O)NCCO)cc1 | 190 to 192
Oc1cc2ccccc2cc1OCCOc1ccccc1 | 141 to 142
CCSc1cc(C)nc(SCC)c1NC(=O)CSc1nc2cccc(C(=O)OC)c2o1 | 168 to 169

SMILES | melting point [°C]
COc1ccc(C(=O)CCCCCBr)cc1OC | 38 to 40
O=C1C(=O)N(c2ccccc2)C(=O)N1c1ccccc1 | 203
CC(C)(C)NSc1cnccn1 | 44 to 52
COC(=O)c1c(C)n(-c2cc([N+](=O)[O-])c(C)cc2C)cc(Cl)c1=O | 266
Clc1ccc(Cn2cnc3ccc(Cl)nc32)c(Cl)c1 | 149 to 150
Cn1cc(C2=C(c3ccccc3OCC3COC(C)(C)O3)C(=O)NC2=O)c2ccccc21 (racemic) | 221
OCc1nc2ccc(OC(F)(F)F)cc2[nH]1 | 192 to 194
c1ccc(CN2CCN(c3ccnc4[nH]ccc34)CC2)cc1 | 175
Cc1ccc(Sc2nc(-c3ccccc3)cnc2N)cc1 | 120 to 122
Cc1onc(-c2ccc(Cl)c(Cl)c2)c1-c1ccc(S(N)(=O)=O)cc1 | 66 to 71
CN1C(=O)[C@H](NC(=O)CNc2ccccc2Cl)N=C(c2ccccc2)c2ccccc21 | 222 to 224
CCOCc1nc2c(N)nc(C)c(C)c2n1CCNC(=O)N1CCOCC1 | 179 to 181
Cc1cc2c(cc1C)C(=O)C(=O)N2 | 217 to 218
COc1ccc2c(c1)C=C(c1ccc3c(c1)NC(=O)CO3)C(c1ccccc1)O2 (configuration not stated) | 200
C=C1N(C)C(=O)OC12CCN(CC=C(c1ccccc1)c1ccccc1)CC2 | 126 to 127
COc1ccc(C#N)cc1/C=C/C(=O)O | 252 to 253
CCOC(=O)NC(=O)C(C#N)=CNc1ccc(Cl)cc1 | 177 to 183
O=C(CCc1ccc(F)cc1)c1cccnc1F | 73 to 74
CC(C)C[C@H](NC(=O)[C@H](Cc1cccc2ccccc12)NC(=O)OCc1ccccc1)C(=O)NN | 200 to 204
CCCCNS(=O)(=O)c1ccc(N2CCC(=O)CC2)cc1 | 79 to 82
CC(C(=O)O)c1ccc2onc(-c3ccc(Cl)cc3)c2c1 (configuration not stated) | 137 to 139
O=C(O)c1cc(-n2c3c(c(-c4ccccc4)c2-c2ccccc2)CCCC3)ccc1O | 246 to 247
CSc1ccc2c(=O)n([C@H](C)[C@](O)(Cn3cncn3)c3ccc(F)cc3F)cnc2c1 | 152 to 153
CCC(CC)(COc1nn2nc(C)nc2cc1C)CS(N)(=O)=O | 221 to 222
COc1ccc(S(=O)(=O)n2ccc3ccnc(-c4ccc(F)cc4)c32)cc1 | 136 to 137
CCOc1ccnc(N2CCN(C(=O)c3ccccc3C=O)CC2)n1 | 134 to 136

SMILES | melting point [°C]
CCCCCCCCCCNC(=O)CCCCC(=O)OO | 77 to 85
CCOC(=O)C=CC(=O)Nc1ccc2c(Nc3cccc(Br)c3)ncnc2c1 | > 260
CC1(C)OC(=S)Nc2ccc(-c3ccc(C#N)[nH]3)cc21 | 261 to 262
COC(=O)C(C)n1nnc2ccc(O)cc21 (configuration not stated) | 132 to 134
O=C(O)CNC(=O)c1nc(Cl)c2cc(Cl)c(Cl)cc2c1O | 265
COc1ccc2nc3ccc(OC)cc3c(C(=O)O)c2c1 | 192 to 193
CCOC(=O)C(C)(Sc1nc2ccc(OCC)cc2s1)c1ccccc1 (configuration not stated) | 92 to 94
Cc1cccc(NC(=O)NC2N=C(c3ccccc3F)c3ccccc3N(Cc3nccc4c3CCCC4)C2=O)c1 (racemic) | 207 to 210
CC/C=C/c1nc(Cl)c(C=O)n1Cc1ccc(-c2ccccc2C(=O)O)cc1 | 164 to 166
Cc1cc(C)c(C2C(=O)CCCC2=O)c(C)c1 | 196 to 198
CCCCN(N=Nc1[nH]cnc1C(N)=O)C(C)=N | 191
CC(=O)OCC(=O)C1(OC(=O)c2ccccc2)CCC2C3CC(C)C4=CC(=O)C=CC4(C)C3C(O)CC21C (configuration not stated) | 258
Cc1oc(-c2ccccc2)nc1CCOc1ccc(CN(O)C(N)=O)cc1 | 148 to 150
CSc1cc2nnc(C)n2c(C)n1 | 201 to 203
O=C(Nc1cccc(OC(F)(F)F)c1)NC1N=C(c2ccccc2F)c2ccccc2N(CC(=O)N2CC3CCC(CC3)C2)C1=O (racemic) | 156 to 164
CCOC(=O)Cc1n[nH]c(=O)c2c(C)cccc12 | 197 to 199
COc1ccccc1CCN(CCCCC(=O)c1ccc2c(c1)CCN2C(=O)Nc1ccccc1)C(=O)OC(C)(C)C | 136 to 137
CN(c1cccc(C(F)(F)F)c1)c1nc2c(-c3cccc(C(=O)O)c3)cccc2n1C | 211 to 212
Cc1ccc(OCCCN2CCN(c3ccc(Cl)nn3)CC2)cc1 | 129 to 131
Cc1ccc2nc(-c3ccc4c(c3)sc(=N)n4C)sc2c1 | 146 to 148
Cc1nnc(-c2ccc3occ(-c4ccc5sccc5c4)c3c2)o1 | 159 to 160
c1cncc(-c2ccc3nnn(Cc4ccc5ncccc5c4)c3n2)c1 | 208 to 210
Cc1cc(N)nc(CCCCNC(=O)c2c(O)cccc2O)c1 | 158 to 159
O=C(O)c1ccc(Cl)c(S(=O)(=O)NC2CCCCCCC2)c1 | 134
Cc1cccc(-c2nc3cccnn3c2-c2ccnc(NC3CCCCC3)c2)c1 | 169 to 170
Nc1ncccc1OCC#CI | 140

SMILES | melting point [°C]
Cc1ccc2c(c1)C=Cc1cc(C)ccc1C2c1cn(-c2ccnc(N(C)CC(=O)Nc3nc(CC(=O)O)cs3)n2)c(=O)[nH]c1=O | 210
CNC(=O)c1ccc(-c2cccc(C3=NC(C)(C)Cc4cc(OC)c5c(c43)CC(C)(C)O5)c2)cc1 | 242 to 244
CN(C)C(=O)CCC(=O)NC1CCC(CCN2CCN(c3nccc4c3CCO4)CC2)CC1 (configuration not stated) | 188
O=C(O)CCCSC(=S)NCCCc1ccc(Cl)cc1 | 98 to 100
CC(C)(C)C(=O)C(Br)Cc1cccnc1 (configuration not stated) | 163 to 164
COc1cc2c(cc1N1CCNCC1)OCC2 | 108 to 109
COc1ccccc1N1CCN(CC(C(=O)NC(C)(C)C)c2ccccc2)CC1 (configuration not stated) | 160 to 163
O=C(O)Cc1ccc(-n2cc(F)cn2)cc1 | 165 to 167
CC(=O)NC(C)C(=O)Nc1ccc2[nH]cc(C(=O)O)c(=O)c2c1 (configuration not stated) | 196 to 200
Cc1cc(C(=O)N(C(C)C)C(C)C)ccc1[N+](=O)[O-] | 108 to 110
COc1cc(OC)c2c(C)c(CCN3CCC(O)(c4ccccc4)CC3)c(=O)oc2c1 | 178 to 179
CCn1cc(C(C)=O)c(=O)c2ccc(-c3ccncc3)cc21 | 231 to 233
CC1(C)CCc2c(-c3ccoc3)nc3sc4c(NCc5ccccn5)ncnc4c3c2C1 | 235 to 236
Cc1nc2cccc3n(CCCCNS(C)(=O)=O)c(=O)c1n23 | 166 to 167
O=C1Cc2cc3c(cc2C(c2cccc([N+](=O)[O-])c2)=NN1)OCO3 | 251 to 253
Clc1nnc(Cl)c2sccc12 | 260 to 263
CC1(C)[C@@H](NCC(=O)N2C[C@@H](F)C[C@H]2C#N)CC[C@@]1(C)c1nc(-c2ccc(F)cc2)no1 | 127 to 131
COc1cccc2c1CCn1cc(-c3ccccc3)nc1C2OC1CCN(C)CC1 (configuration not stated) | 73
COc1cccc(C(=O)O)c1N | 172 to 175
Cc1nnc2nc(-c3cccc(C(F)(F)F)c3)ccn12 | 232 to 234
O=C1C(=O)c2ccccc2C2=C1SCC1(CCN(C(=O)c3ccc(Cl)c(Cl)c3)CC1)O2 | 221
COc1ccc(-n2nc(NC(=O)N(C)C)cc2-c2ccc(OCCNC(N)=O)cc2)cc1 | 193 to 196
O=C1C2CCCCC2C(=O)N1c1ccc(Cl)cc1F (configuration not stated) | 94 to 95.5
CSC(NCCNC(=O)OC(C)(C)C)=C(C#N)C#N | 123 to 125
